This experiment has as its target T1, NcAA9C (Neurospora crassa, UniProt Q7SHI8).
T1 construct: gene gh61-3; copper-saturated
T1 sequence (Q7SHI8 17-359): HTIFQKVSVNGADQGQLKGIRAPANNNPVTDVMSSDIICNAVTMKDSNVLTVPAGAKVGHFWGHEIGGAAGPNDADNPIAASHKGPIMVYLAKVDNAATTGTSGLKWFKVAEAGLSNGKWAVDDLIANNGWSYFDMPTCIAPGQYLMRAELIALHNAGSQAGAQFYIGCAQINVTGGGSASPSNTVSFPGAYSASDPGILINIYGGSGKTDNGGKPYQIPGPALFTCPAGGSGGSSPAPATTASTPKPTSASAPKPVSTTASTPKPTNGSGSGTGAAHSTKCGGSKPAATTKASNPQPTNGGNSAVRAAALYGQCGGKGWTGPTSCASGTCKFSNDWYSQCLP
Kind of experiment: HPAEC-PAD of cellotriose product. The class given is biochemical. The note with it: 1 uM enzyme, 100 uM ascorbate, 100 uM H2O2, 50 mM MOPS pH 7.0, 30 C.

For the molecule `OC[C@H]1O[C@@H](O[C@H]2[C@H](O)[C@@H](O)[C@H](O[C@H]3[C@H](O)[C@@H](O)[C@H](O[C@H]4[C@H](O)[C@@H](O)[C@H](O[C@H]5[C@H](O)[C@@H](O)C(O)O[C@@H]5CO)O[C@@H]4CO)O[C@@H]3CO)O[C@@H]2CO)[C@H](O)[C@@H](O)[C@@H]1O` (stereo partly shown) [cellopentaose], the “HPAEC-PAD of cellotriose product” value is “conversion of small, soluble and easily diffusible cellopentaose by NcAA9C”.

These data come from publication PMC12067858 (Febs Letters, 2025).
